Measurements taken from patent publication US4550186A, “Binuclear copper (II) carboxylates formed from amine-carboxyboranes” (Duke University, priority 1983, dated 1985).

Assays:
[1] = test system: Holtzman male rats; experiment: 3H-Cholesterol distribution in rats; assay type: in vivo, rat; conditions: for Orally administered 3H-Cholesterol: 14 days 10 mg/Kg/Day, Treated
Protocol: Holtzman male rats (~350 g) were administered the test agent for 14 days orally. On day 13, 10 μCi of ^3 H-cholesterol (40.7 mCi/mmol) was administered intraperitoneally in mice and orally in rats, and feces were collected for the next 24 hr. Twenty-four hours after cholesterol administration, the major organs were excised and samples of blood, chyme and urine were obtained. Homogenates (10%) were prepared of the tissues which were combusted and counted. Some tissue samples were plated on Whatman #1 filter paper, dried and digested for 24 hr in base at 40° C. and counted. Results were expressed as dpm/mg of wet tissue and dpm/per total organ.

[2] = test system: protein synthesis of Ehrlich ascites cells; experiment: In vitro whole cell incorporation: protein synthesis; assay type: cell-based, mouse; conditions: preliminary, 60 min, read-out: ID50, protein synthesis
Protocol: CF1 male mice (~30 g) were implanted with 2×10^6 Ehrlich ascites tumor cells, intraperitoneally on Day 0. Compound I was suspended by homogenation in 0.05% polysorbate.80-water and administered intraperitoneally at 10 and 20 mg/kg for 9 days to determine its effectiveness for inhibition of tumor growth. Mice were sacrificed on Day 10, and the ascites fluid was collected from the peritoneal cavity. The volume and ascrit (packed cell volume) were determined for each animal and the percent inhibition of tumor growth was calculated. For the metabolic studies, mice were treated on Days 8 and 9 with 10 mg/kg of Compound I, intraperitoneally. The animal was sacrificed on Day 10 and the ascites fluid harvested. The in vitro metabolic studies were performed at […] final concentration of Compound I.
In vitro incorporation of ^3 H-thymidine, ^3 H-uridine, or ^3 H-leucine was determined using 10^6 Ehrlich ascites cells, 1 μCi labeled precursor, minimum essential medium and varying final concentrations of drug from 0.25-1.0 mM. The tubes were incubated at 37° C. for 60 min and inactivated by trichloroacetic acid. The acid insoluble labeled deoxyribonucleic acid was collected on GF/F glass filter discs and ribonucleic acid and protein were precipitated on nitrocellulose filters by vacuum suction. Results are expressed as dpm of incorporated precursor per hour per 10^6 cells.

[3] = test system: Cholesterol Side Chain Oxidation; experiment: In vitro liver enzyme study: cholesterol side chain oxidation; assay type: biochemical, mouse
Protocol: In vitro enzymatic studies were determined using 10% homogenates of CF1 male mouse liver with 50-200 μM of test drugs. In vivo enzymatic studies were determined using 10% homogenates of liver from CF1 male mice obtained after administering the agents for 16 days at a dose ranging from 2.5-20 mg/kg/day intraperitoneally. The liver homogenates for both in vitro and in vivo studies were prepared in 0.25M sucrose and 0.001M (ethylenedinitrilo)tetraacetic acid. Acetyl coenzyme A synthetase and adenosine triphosphate dependent citrate lyase activities were determined spectrophotometrically at 540 nm as the hydroxylamate of acetyl coenzyme A formed after 30 min at 37° C. Mitochondrial citrate exchange was determined by the procedure of Robinson et al [Eur. J. Biochem., 216, 63 (1970)] using ^14 C-sodium bicarbonate (41 mCi/mmol) incorporated into mitochondrial ^14 C-citrate after isolating rat mitochondria (9000 g×10 min) from the homogenates. The exchanges of the ^14 C-citrate were determined after incubating the mitochondrial fraction which was loaded with labeled citrate and test drugs for 10 min. Then the radioactivity was measured in the mitochondrial and supernantant fractions in scintillation fluid and expressed as a percentage. […] Acyl transferase activity was determined with glycerol-3phosphate [L-2-^3 H(N)] […] HCl and counted. […]

Substance: {Cu[(CH3)3 N.BH2 CO2 ]2.(CH3)3 N.BH2 COOH} [Compound I]
- Orally administered 3H-Cholesterol ([1]; rat Brain): 15,783 DPM/Total Organ
- Orally administered 3H-Cholesterol ([1]; rat Chyme): 218,742 DPM/Total Organ
- Orally administered 3H-Cholesterol ([1]; rat Feces): 294,644 DPM/Total Organ
- Orally administered 3H-Cholesterol ([1]; rat Heart): 20,060 DPM/Total Organ
- Orally administered 3H-Cholesterol ([1]; rat Kidney): 565 DPM/Total Organ
- Orally administered 3H-Cholesterol ([1]; rat Large Intestine): 59,665 DPM/Total Organ
- Orally administered 3H-Cholesterol ([1]; rat Liver): 27,695 DPM/Total Organ
- Orally administered 3H-Cholesterol ([1]; rat Lung): 17,106 DPM/Total Organ
- Orally administered 3H-Cholesterol ([1]; rat Small Intestine): 16,514 DPM/Total Organ
- Orally administered 3H-Cholesterol ([1]; rat Spleen): 13,241 DPM/Total Organ
- Orally administered 3H-Cholesterol ([1]; rat Stomach): 33,901 DPM/Total Organ
- 3H-cholesterol reduced (dpm/organ vs control) ([1]; rat brain): 46%
- higher content of cholesterol ([1]; rat chyme): 113%
- 3H-cholesterol reduced (dpm/organ vs control) ([1]; rat heart): 18%
- 3H-cholesterol reduced (dpm/organ vs control) ([1]; rat kidney): 91%
- higher content of cholesterol ([1]; rat large intestine): 27%
- 3H-cholesterol reduced (dpm/organ vs control) ([1]; rat liver): 42%
- higher content of cholesterol ([1]; rat small intestine): 81%
- higher content of cholesterol ([1]; rat stomach): 198%
- higher content of cholesterol ([1]; rat urine): 336%
- IC50 [2]: 863 µM
- Cholesterol Side Chain Oxidation ([3]; in vitro CF1 liver, 100 μM): 152 ± 7 Percent Control
- degradation of cholesterol by oxidation of the side chain accelerated ([3]; in vitro, in the presence of drug): 52%
